From patent publication US20240279220A1, “INDOLE COMPOUNDS AND METHODS OF USE” (Genzyme Corporation, priority 2021, published 2024)

System: NBD1/3D
Assay: Aggregation analysis using differential static light scattering (DSLS), NBD1 thermal stability
Assay type: binding, Human
Conditions: ΔTagg versus DMSO control; compound at 100 μM
Summary of the method: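 Purified NBD1 at 0.2 mg/ml in S200 buffer (pH 7.6, 2 mM ATP, 5 mM MgCl2, 1% glycerol) was heated with compound at 1 °C/min to 70 °C. Tagg taken from the light-scattering curve inflection point; ΔTagg = compound Tagg minus mean DMSO control Tagg.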

| Structure (SMILES) | DSLS NBD1/3D Human Stability delta-T (° C.) @ 100 (μM) |
| --- | --- |
| Cc1c(Oc2ccc(F)c(-c3nc(C4(c5cccc(CCC(=O)O)c5)OCCCO4)c[nH]3)c2)c(F)cc2[nH]ccc12 [Example 231, 3-(3-(2-(2-(2-fluoro-5-((6-fluoro-4-methyl-1H-indol-5-yl)oxy)phenyl)-1H-imidazol-4-yl)-1,3-dioxan-2-yl)phenyl)propanoic acid] | A (A: T ≥ 10° C.) |
| Cc1c(Oc2ccc(F)c(-c3nc(C4(c5cccc(CCC(=O)O)c5)OCCO4)c[nH]3)c2)c(F)cc2[nH]ccc12 [Example 232, 3-(3-(2-(2-(2-fluoro-5-((6-fluoro-4-methyl-1H-indol-5-yl)oxy)phenyl)-1H-imidazol-4-yl)-1,3-dioxolan-2-yl)phenyl)propanoic acid] | B (B: 5-10° C.) |
| COCCOCCOC(C)(c1cccc(CCC(=O)O)c1)c1cnc(-c2cc(Oc3c(F)cc4[nH]ccc4c3C)ccc2F)[nH]1 (stereo not drawn) [Example 233, 3-(3-(1-(2-(2-Fluoro-5-((6-fluoro-4-methyl-1H-indol-5-yl)oxy)phenyl)-1H-imidazol-5-yl)-1-(2-(2-methoxyethoxy)ethoxy)ethyl)phenyl)propanoic acid] | B (B: 5-10° C.) |
| COCCOC(C)(c1cccc(CCC(=O)O)c1)c1cnc(-c2cc(Oc3c(F)c(F)c4[nH]ccc4c3C)ccc2F)[nH]1 (stereo not drawn) [Example 234, 3-(3-(1-(2-(5-((6,7-difluoro-4-methyl-1H-indol-5-yl)oxy)-2-fluorophenyl)-1H-imidazol-5-yl)-1-(2-methoxyethoxy)ethyl)phenyl) propanoic acid] | B (B: 5-10° C.) |
| Cc1c(Oc2ccc(F)c(-c3ncc(C(OCCO)c4cccc(CCC(=O)O)c4)[nH]3)c2)c(F)cc2[nH]ccc12 (stereo not drawn) [Example 235, 3-(3-((2-(2-fluoro-5-((6-fluoro-4-methyl-1H-indol-5-yl)oxy)phenyl)-1H-imidazol-5-yl)(2-hydroxyethoxy)methyl)phenyl) propanoic acid] | B (B: 5-10° C.) |
| COCCOC(c1cccc(CCC(=O)O)c1)c1cnc(-c2cc(Oc3c(F)cc4[nH]ccc4c3C)ccc2F)[nH]1 (stereo not drawn) [Example 236, 3-(3-((2-(2-fluoro-5-((6-fluoro-4-methyl-1H-indol-5-yl)oxy)phenyl)-1H-imidazol-5-yl)(2-methoxyethoxy)methyl)phenyl) propanoic acid] | B (B: 5-10° C.) |
| COC(c1cccc(CCC(=O)O)c1)c1cnc(-c2cc(Oc3c(F)cc4[nH]ccc4c3C)ccc2F)[nH]1 (stereo not drawn) [Example 237, 3-(3-((2-(2-fluoro-5-((6-fluoro-4-methyl-1H-indol-5-yl)oxy)phenyl)-1H-imidazol-5-yl)(methoxy)methyl)phenyl) propanoic acid] | B (B: 5-10° C.) |
| Cc1c(Oc2ccc(F)c(-c3nnc(Cc4cccc(CCC(=O)O)c4)[nH]3)c2)c(F)cc2[nH]ccc12 [Example 238, 3-(3-((5-(2-Fluoro-5-((6-fluoro-4-methyl-1H-indol-5-yl)oxy)phenyl)-4H-1,2,4-triazol-3-yl)methyl)phenyl)propanoic acid] | B (B: 5-10° C.) |
| O=C(O)CCc1cccc(Cc2nnc(-c3cc(Oc4c(F)cc5[nH]ccc5c4Cl)ccc3F)[nH]2)c1 [Example 239, 3-(3-((5-(5-((4-chloro-6-fluoro-1H-indol-5-yl)oxy)-2-fluorophenyl)-4H-1,2,4-triazol-3-yl)methyl)phenyl) propanoic acid] | C (C: ≤5° C.) |
| O=C(O)CCc1cccc(Cc2nnc(-c3cc(Oc4c(F)cc5[nH]ccc5c4F)ccc3F)[nH]2)c1 [Example 240, 3-(3-((5-(5-((4,6-difluoro-1H-indol-5-yl)oxy)-2-fluorophenyl)-4H-1,2,4-triazol-3-yl)methyl)phenyl) propanoic acid] | B (B: 5-10° C.) |
| Cc1c(Oc2ccc(F)c(-c3nc(Cc4cccc(CCC(=O)O)c4)n(C)n3)c2)c(F)cc2[nH]ccc12 [Example 241, 3-(3-((3-(2-Fluoro-5-((6-fluoro-4-methyl-1H-indol-5-yl)oxy)phenyl)-1-methyl-1H-1,2,4-triazol-5-yl)methyl)phenyl)propanoic acid] | B (B: 5-10° C.) |
| Cc1c(Oc2ccc(F)c(-c3nc(Cc4cccc(CCC(=O)O)c4)nn3C)c2)c(F)cc2[nH]ccc12 [Example 242, 3-(3-((5-(2-Fluoro-5-((6-fluoro-4-methyl-1H-indol-5-yl)oxy)phenyl)-1-methyl-1H-1,2,4-triazol-3-yl)methyl)phenyl)propanoic acid] | B (B: 5-10° C.) |
| Cc1c(Oc2ccc(F)c(-c3nnc(Cc4cccc5c4CC(C(=O)O)C5)[nH]3)c2)c(F)cc2[nH]ccc12 (stereo not drawn) [Example 244, 4-((5-(2-Fluoro-5-((6-fluoro-4-methyl-1H-indol-5-yl)oxy)phenyl)-4H-1,2,4-triazol-3-yl)methyl)-2,3-dihydro-1H-indene-2-carboxylic acid] | C (C: ≤5° C.) |
| Cc1c(Oc2ccc(F)c(-c3nnc(Cc4ccc5c(c4)CC(C(=O)O)C5)[nH]3)c2)c(F)cc2[nH]ccc12 (stereo not drawn) [Example 245, 5-((5-(2-Fluoro-5-((6-fluoro-4-methyl-1H-indol-5-yl)oxy)phenyl)-4H-1,2,4-triazol-3-yl)methyl)-2,3-dihydro-1H-indene-2-carboxylic acid] | C (C: ≤5° C.) |
| Cc1c(Oc2ccc(F)c(-c3nnc(Cc4ccc5[nH]c(C(=O)O)cc5c4)[nH]3)c2)c(F)cc2[nH]ccc12 [Example 246, 5-((5-(2-fluoro-5-((6-fluoro-4-methyl-1H-indol-5-yl)oxy)phenyl)-4H-1,2,4-triazol-3-yl)methyl)-1H-indole-2-carboxylic acid] | B (B: 5-10° C.) |
| Cc1c(Oc2ccc(F)c(-c3nnc(Cc4cccc(C5CC(C(=O)O)C5)c4)[nH]3)c2)c(F)cc2[nH]ccc12 (stereo not drawn) [Example 247, 3-(3-((5-(2-Fluoro-5-((6-fluoro-4-methyl-1H-indol-5-yl)oxy)phenyl)-4H-1,2,4-triazol-3-yl)methyl)phenyl)cyclobutane-1-carboxylic acid] | B (B: 5-10° C.) |
| Cc1c(Oc2ccc(F)c(-c3nnc(Cc4cccc(C5(F)CC(C(=O)O)C5)c4)[nH]3)c2)c(F)cc2[nH]ccc12 (stereo not drawn) [Example 248, 3-Fluoro-3-(3-((5-(2-fluoro-5-((6-fluoro-4-methyl-1H-indol-5-yl)oxy)phenyl)-4H-1,2,4-triazol-3-yl)methyl)phenyl)cyclobutane-1-carboxylic acid] | C (C: ≤5° C.) |
| Cc1c(Oc2ccc(F)c(-c3nnc(Cc4cccc(N5CC(C(=O)O)C5)c4)[nH]3)c2)c(F)cc2[nH]ccc12 [Example 249, 1-(3-((5-(2-Fluoro-5-((6-fluoro-4-methyl-1H-indol-5-yl)oxy)phenyl)-4H-1,2,4-triazol-3-yl)methyl)phenyl)azetidine-3-carboxylic acid] | C (C: ≤5° C.) |
| CC(O)(c1cccc(CCC(=O)O)c1)c1nnc(-c2cc(Oc3c(F)cc4[nH]ccc4c3F)ccc2F)[nH]1 (stereo not drawn) [Example 250, 3-(3-(1-(5-(5-((4,6-Difluoro-1H-indol-5-yl)oxy)-2-fluorophenyl)-4H-1,2,4-triazol-3-yl)-1-hydroxyethyl)phenyl)propanoic acid] | B (B: 5-10° C.) |
| Cc1c(Oc2ccc(F)c(-c3nnc(C(C)(O)c4cccc(CCC(=O)O)c4)[nH]3)c2)c(F)cc2[nH]ccc12 (stereo not drawn) [Example 251, 3-(3-(1-(5-(2-fluoro-5-((6-fluoro-4-methyl-1H-indol-5-yl)oxy)phenyl)-4H-1,2,4-triazol-3-yl)-1-hydroxyethyl)phenyl)propanoic acid] | B (B: 5-10° C.) |
| O=C(O)CCCCC#Cc1ccc(Cc2nnc(-c3cccc(Oc4ccc5[nH]ccc5c4)c3)[nH]2)cc1 [Example 253, 7-(4-((5-(3-((1H-Indol-5-yl)oxy)phenyl)-4H-1,2,4-triazol-3-yl)methyl)phenyl)hept-6-ynoic acid] | C (C: ≤5° C.) |
| O=C(O)CCCCCCc1ccc(Cc2nnc(-c3cccc(Oc4ccc5[nH]ccc5c4)c3)[nH]2)cc1 [Example 254, 7-(4-((5-(3-((1H-Indol-5-yl)oxy)phenyl)-4H-1,2,4-triazol-3-yl)methyl)phenyl)heptanoic acid] | C (C: ≤5° C.) |
| O=C(O)CCCCCc1cccc(Cc2nnc(-c3cccc(Oc4ccc5[nH]ccc5c4)c3)[nH]2)c1 [Example 255, 6-(3-((5-(3-((1H-indol-5-yl)oxy)phenyl)-4H-1,2,4-triazol-3-yl)methyl)phenyl)hexanoic acid] | C (C: ≤5° C.) |
| O=C(O)CCCCCCc1cccc(Cc2nnc(-c3cccc(Oc4ccc5[nH]ccc5c4)c3)[nH]2)c1 [Example 256, 7-(3-((5-(3-((1H-indol-5-yl)oxy)phenyl)-4H-1,2,4-triazol-3-yl)methyl)phenyl)heptanoic acid] | C (C: ≤5° C.) |
| O=C(O)CCCCc1cccc(Cc2nnc(-c3cccc(Oc4cc5cc[nH]c5cn4)c3)[nH]2)c1 [Example 257, 5-(3-((5-(3-((1H-pyrrolo[2,3-c]pyridin-5-yl)oxy)phenyl)-4H-1,2,4-triazol-3-yl)methyl)phenyl)pentanoic acid] | C (C: ≤5° C.) |
| O=C(O)CCCCc1cccc(Cc2nnc(-c3cccc(Oc4ccc5[nH]ccc5c4)c3)[nH]2)c1 [Example 258, 5-(3-((5-(3-((1H-indol-5-yl)oxy)phenyl)-4H-1,2,4-triazol-3-yl)methyl)phenyl)pentanoic acid] | C (C: ≤5° C.) |
| O=C(O)CCCc1cccc(Cc2nnc(-c3cccc(Oc4ccc5[nH]ccc5c4)c3)[nH]2)c1 [Example 259, 4-(3-((5-(3-((1H-Indol-5-yl)oxy)phenyl)-4H-1,2,4-triazol-3-yl)methyl)phenyl)butanoic acid] | B (B: 5-10° C.) |
